Test results reported in patent US8877163B2, “Cycloalkyl triamine pentacarboxylate as ligands for paramagnetic metal complexes” (Kaohsiung Medical University, priority 2006, dated 2014).
Like-named read-outs stand apart in the source and are kept apart here.

How the values were obtained:
[1] = Stability constants of the gadolinium complex by potentiometric titration (BEST program); type: physicochemical
Excerpt: (§1) Presently, there are two ways for calculating the thermodynamic stability constant of a metal complex by the potentiometric titration. […] The second method is suitable for the metal complex whose disassociation rate is less than 25% at low pH (such as pH 2). Take the metal complex of the present invention for instance, since it is not able to form a complex with the ligand at a pH value around 2, the thermodynamic stability constant thereof must be calculated by the previous method. The equation for the thermodynamic stability constant is defined as follows: [formula] where M represents the metal ion, L represents the ligand, and ML represents the metal complex. […] The thermodynamic stability constants for the metal complexes with CB-TTDA are determined from the titration data with the FORTRAN computer program BEST as shown in Table 2 with the reported thermodynamic stability constants of TTDA and DTPA, which are respectively reported by Y M. Wang et al., Inorganic Chemistry, vol. 44, page 382, 2005 and by P. Caravan et al., Inorganic Chemistry, vol. 44, page 2170, 2001. The conditional stability constant (Kcond) specifies the degree of metal chelation at a given pH and is defined as follows: […] [formula] where LT is the total concentration of the uncomplexed ligand, which is defined by the following equation: […]

[2] = Stability constants of the calcium complex by potentiometric titration (BEST program); type: physicochemical
Excerpt: as §1

[3] = Stability constants of the zinc complex by potentiometric titration (BEST program); type: physicochemical
Excerpt: as §1

[4] = Stability constants of the copper complex by potentiometric titration (BEST program); type: physicochemical
Excerpt: as §1

[5] = Selectivity constant and modified selectivity constant of the gadolinium complex; type: physicochemical
Excerpt: The selectivity constant is used only for showing the difference between the gadolinium complex and other metal complexes. However, due to the coexistence of the zinc ion, the calcium ion and the copper ion in vivo, all the following factors, which are the pH value, the protonation constant for the ligand, the concentrations of the metal ions (Zn^2+, Ca^2+, Cu^2+) and the stability constants for Gd^3+, Zn^2+, Ca^2+ and Cu^2+ complexes should be considered for obtaining the selectivity constant with a new definition, called modified selectivity constant (Ksel′) and defined by the following equation: Ksel′=Ktherm(αH^−1+αCaL^−1+αCuL^−1+αZnL^−1)^−1, where αH^−1=1+K1^H[H^+]+K1^HK2^H [H^+]^++ . . .; αCaL^−1=1+KCaL[Ca^2+]; αCuL^−1=1+KCuL[Cu^2+]; αZnL^−1=1+KZnL[Zn^2+]; and thus the modified selectivity constant of the gadolinium complex at the biological pH (7.4) could be calculated by the mentioned equation (the value of the conditional stability constant is calculated previously, and the concentrations of the zinc, the calcium and the copper ions are 50 μM, […] and 1 μm, respectively).

[6] = Protonation constants by potentiometric titration (PKAS program); type: physicochemical; conditions: for ΣpKa: sum of the four protonation constants
Description: Firstly, the ligands (HnL) are deprotoned (L^n−) by treating them with the alkaline solution. After that, a slow addition of the acidic solution for associating the deprotonated ligand with the protons (H^+) is performed, and thus protonated organic ligands are formed. The equation for the protonation constant is shown as follows:
Please refer to FIG. 2, which is a potentiometric titration curve for CB-TTDA (the ionic strength I=0.1 M Me4NCl and the temperature T=25.0±0.1° C.) measured by an automatic titrator system. The protonation constants for the CB-TTDA are determined from the titration data with the FORTRAN computer program PKAS as shown in Table 1.

[7] = I = 0.1 M Me4NCl, T = 25.0 ± 0.1° C.; reported values; cited from earlier work
[8] = reported values; cited from earlier work
[9] = I = 0.1 M Me4NCl, T = 25.0 ± 0.1° C.; reported values; cited from earlier work; remark: listed apart in the source
[10] = I = 0.1 M Me4NCl, T = 25.0 ± 0.1° C.; reported values; cited from earlier work; remark: listed apart in the source
[11] = I = 0.1 M Me4NCl, T = 25.0 ± 0.1° C.; reported values; cited from earlier work; remark: listed apart in the source
[12] = after removal of the galactopyranoside by β-gal; cited from earlier work
[13] = target: human serum albumin (Homo sapiens, UniProt P02768); conditions: cited from earlier work; for relaxivity for the combination with human serum albumin: bound to human serum albumin
Chain of human serum albumin (P02768 25-609): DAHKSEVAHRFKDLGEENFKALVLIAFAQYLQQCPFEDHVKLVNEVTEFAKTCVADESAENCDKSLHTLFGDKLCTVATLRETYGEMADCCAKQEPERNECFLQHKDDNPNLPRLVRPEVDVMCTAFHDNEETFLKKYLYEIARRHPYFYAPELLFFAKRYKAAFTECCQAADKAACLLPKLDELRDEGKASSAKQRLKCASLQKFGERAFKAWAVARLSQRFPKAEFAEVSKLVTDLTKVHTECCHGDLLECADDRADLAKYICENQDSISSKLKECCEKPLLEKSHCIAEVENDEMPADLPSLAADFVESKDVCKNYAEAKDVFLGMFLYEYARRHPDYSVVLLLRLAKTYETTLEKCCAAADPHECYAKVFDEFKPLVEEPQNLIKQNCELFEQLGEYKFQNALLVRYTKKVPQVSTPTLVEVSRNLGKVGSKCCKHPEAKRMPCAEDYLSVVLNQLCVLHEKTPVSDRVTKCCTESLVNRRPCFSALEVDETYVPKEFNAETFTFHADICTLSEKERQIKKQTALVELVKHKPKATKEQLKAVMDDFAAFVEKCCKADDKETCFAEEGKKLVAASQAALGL

[14] = Dy (III)-induced 17O-NMR water shift (d.i.s.), number of inner space water molecules; type: physicochemical
Excerpt: From measuring the d.i.s. (Dy (III)-induced ^17O-NMR water shifts) of the ^17O nuclides in water induced by Dy (III) via ^17O-NMR and graphing the concentration of Dy (III) complexes with respect to the d.i.s., a linear relationship is found, as shown in the following equation: d.i.s.=qΔ[Dy(ligand)n(H2O)q/[H2O]
The slope is qΔ/[H2O] with q being the number of inner space water molecule. […] Because the Dy (III) hydrate is able to combine with 8 water molecules and is in direct proportion to the slope, the value of q (q=0.9) for [Dy(CB-TTDA)]^2− is obtained thereby.

[15] = cited from earlier work
[16] = 20 MHz, 37.0 ± 0.1° C., cited from earlier work
[17] = incubation with zinc (II) for three days; 20 MHz, 37.0 ± 0.1° C.; reported by S. Laurent et al; cited from earlier work
[18] = I = 0.1 M Me4NCl, T = 25.0 ± 0.1° C.

## O=C(O)CN(CCN(CC(=O)O)CC1(CN(CC(=O)O)CC(=O)O)CCC1)CC(=O)O [CB-TTDA, 6-carboxymethyl-3-{{[1-(N,N-dicarboxymethyl)-2-aminomethyl]-cyclobut-1-yl}-methyl}-3,6-diazaoctanedioic acid]
[1]
  log KML [GdL]/[Gd][L] (thermodynamic stability constant): 20.28(0.03)
  pGd: 15.82
[2]
  pCa: 4.09
  log KCaL (pH = 7.4) (conditional stability constant): 4.06
[2]; [18]
  log KCaHL: 6.24(0.02)
  log KML [CaL]/[Ca][L]: 9.52(0.02)
[3]
  pZn: 12.41
  log KZnL (pH = 7.4) (conditional stability constant): 10.60
[3]; [18]
  log KML [ZnL]/[Zn][L]: 16.06(0.03)
  log KZnHL: 8.13(0.04)
[4]
  pCu: 13.26
  log KCuL (pH = 7.4) (conditional stability constant): 12.25
[4]; [18]
  log KCuHL: 5.29(0.03)
  log KML [CuL]/[Cu][L]: 17.71(0.02)
[5]
  log K(Gd/Ca) (selectivity constant): 11.76
  log K(Gd/Cu) (selectivity constant): 2.57
  log K(Gd/Zn) (selectivity constant): 4.22
[6]; [18]
  log Kn^H [H4L]/[H3L][H]: 3.11(0.04)
  log Kn^H [HL]/[L][H]: 11.08(0.03)
[6]
  ΣpKa: 28.59

## O=C(O)CN(CCN(CC(=O)O)CC(=O)O)CCN(CC(=O)O)CC(=O)O [DTPA]
[1]
  pGd: 19.14
[2]
  pCa: 7.46
  log KCaL (pH = 7.4) (conditional stability constant): 6.43
[3]
  pZn: 15.39
  log KZnL (pH = 7.4) (conditional stability constant): 14.38
[4]
  pCu: 18.06
  log KCuL (pH = 7.4) (conditional stability constant): 17.00
[5]
  log K(Gd/Ca) (selectivity constant): 11.71
  log K(Gd/Cu) (selectivity constant): 1.08
  log K(Gd/Zn) (selectivity constant): 3.76
[6]
  ΣpKa: 26.01
[7]
  log KCuHL: 4.81
  log KML [CuL]/[Cu][L]: 21.38
[8]
  log Kn^H [H2L]/[HL][H]: 8.60
  log Kn^H [H3L]/[H2L][H]: 4.28
  log Kn^H [H4L]/[H3L][H]: 2.64
  log Kn^H [HL]/[L][H]: 10.49
[9]
  log KML [ZnL]/[Zn][L]: 18.70
  log KZnHL: 5.60
[10]
  log KCaHL: 6.11
  log KML [CaL]/[Ca][L]: 10.75
[11]
  log KML [GdL]/[Gd][L] (thermodynamic stability constant): 22.46

## O=C([O-])CN1CCN(CCO[C@@H]2O[C@H](CO)[C@H](O)[C@H](O)[C@H]2O)CCN(CC(=O)[O-])CCN(CC(=O)[O-])CC1.[Gd+3] [Egad, 4,7,10-tri(aceticacid)-1-(2-β-galactopyranosylethoxy)-1,4,7,10-tetraazacyclododecane gadolinium (III)]
[12]
  number of inner space water molecules after hydrolysis by β-galactosidase: 1.2

## O=C([O-])CN(CCN(CC(=O)[O-])C[C@H](COP(=O)([O-])OC1CCC(c2ccccc2)(c2ccccc2)CC1)N(CC(=O)[O-])CC(=O)[O-])CC(=O)[O-].[Gd+3].[H+].[H+].[H+] [MS-325]
[13]; bound to HSA
  bound relaxivity r1^b: 47.0 mM⁻¹ s⁻¹
[13]
  relaxivity for the combination with human serum albumin: 47.0 mM⁻¹ s⁻¹
  binding constant with HSA, KA: 3.0±0.2×10^4 M^−1

## O=C(O)CN(CCCN(CC(=O)O)CC(=O)O)CCN(CC(=O)O)CC(=O)O [TTDA, 3,6,10-tri-(carboxymethyl)-3,6,10-triazadodecanedioic acid]
[1]
  pGd: 15.25
[2]
  pCa: 6.28
  log KCaL (pH = 7.4) (conditional stability constant): 4.42
[3]
  pZn: 12.86
  log KZnL (pH = 7.4) (conditional stability constant): 11.32
[4]
  pCu: 13.06
  log KCuL (pH = 7.4) (conditional stability constant): 12.06
[5]
  log K(Gd/Ca) (selectivity constant): 9.83
  log K(Gd/Cu) (selectivity constant): 2.19
  log K(Gd/Zn) (selectivity constant): 2.93
[6]
  ΣpKa: 27.44
[7]
  log KCuHL: 5.69
  log KML [CuL]/[Cu][L]: 16.77
[8]
  log Kn^H [H2L]/[HL][H]: 8.92
  log Kn^H [H3L]/[H2L][H]: 5.12
  log Kn^H [H4L]/[H3L][H]: 2.80
  log Kn^H [HL]/[L][H]: 10.60
[9]
  log KML [ZnL]/[Zn][L]: 16.03
  log KZnHL: 7.80
[10]
  log KCaHL: 8.20
  log KML [CaL]/[Ca][L]: 9.13
[11]
  log KML [GdL]/[Gd][L] (thermodynamic stability constant): 18.96

## O=C([O-])CN(CC(=O)[O-])CC1(CN(CCN(CC(=O)O)CC(=O)O)CC(=O)O)CCC1.[Ca+2] [[Ca(CB-TTDA)]^3−]
[2]; [18]
  log KML [CaL]/[Ca][L]: 9.52

## O=C([O-])CN(CCN(CC(=O)[O-])CC1(CN(CC(=O)[O-])CC(=O)[O-])CCC1)CC(=O)[O-].[Cu+2] [[Cu(CB-TTDA)]^3−]
[4]; [18]
  log KML [CuL]/[Cu][L]: 17.71

## O=C([O-])CN(CCN(CC(=O)[O-])CC1(CN(CC(=O)[O-])CC(=O)[O-])CCC1)CC(=O)[O-].[Dy+3] [[Dy(CB-TTDA)]^2−]
[14]; 17O-NMR
  slope of d.i.s. versus concentration of Dy (III) complex: −48.2 ppm/mM
[14]; from slope relative to Dy (III) hydrate with 8 water molecules
  q, number of inner space water molecule: 0.9

## CC1(N(CC(=O)[O-])CC(=O)[O-])CN(CC(=O)[O-])CCN(CC(=O)[O-])C1.[Gd+3] [[Gd(AAZTA)]^−]
[15]; 20 MHz and 298 K
  relaxivity: 7.1 mM⁻¹ s⁻¹
[15]; τr increased to 30 ns
  relaxivity calculated by simulating the NMRD profile: 100 mM⁻¹ s⁻¹

## CNC[C@H](O)[C@@H](O)[C@H](O)[C@H](O)CO.CNC[C@H](O)[C@@H](O)[C@H](O)[C@H](O)CO.O=C([O-])CN(CCN(CC(=O)[O-])CC(=O)O)CCN(CC(=O)O)C(COCc1ccccc1)C(=O)[O-].[Gd+3] (stereo not shown) [[Gd(BOPTA)]^2−, gadobenate dimeglumine]
[15]; Fulvio U. et al., 1995
  relaxivity: 4.39 mM⁻¹ s⁻¹

## CNC[C@H](O)[C@@H](O)[C@H](O)[C@H](O)CO.CNC[C@H](O)[C@@H](O)[C@H](O)[C@H](O)CO.O=C([O-])CN(CCN(CC(=O)[O-])CC(=O)O)CCN(CC(=O)[O-])CC(=O)O.[Gd+3] [[Gd(DTPA)]^2−, gadopentetate dimeglumine]
[13]
  relaxivity for the combination with human serum albumin: 33.0 mM⁻¹ s⁻¹
[1]; pH = 7.4
  calculated conditional stability constant of the gadolinium complex: 18.14
[15]; 20 MHz and 298 K
  relaxivity: 3.89 mM⁻¹ s⁻¹
[15]; Fulvio U. et al., 1995
  relaxivity: 3.77 mM⁻¹ s⁻¹
[16]; pH 7.6 ± 0.1, P. Caravan et al.
  relaxivity r1: 3.89 ± 0.03 mM⁻¹ s⁻¹
[17]
  R1^p (t = 3days)/R1^p (t = 0 days): 49.79%

## CNC(=O)CN(CCN(CCN(CC(=O)[O-])CC(=O)NC)CC(=O)[O-])CC(=O)[O-].[Gd+3] [[Gd(DTPA-BMA)], bis-methylamide gadodiamide injection]
[17]
  R1^p (t = 3days)/R1^p (t = 0 days): 9%

## O=C([O-])CN(CCCN(CC(=O)[O-])CC(=O)[O-])CCN(CC(=O)[O-])CC(=O)[O-].[Gd+3] [[Gd(TTDA)]^2−]
[1]
  calculated conditional stability constant of the gadolinium complex: 14.25
[16]; pH 7.5 ± 0.1, Y. M. Wang et al.
  relaxivity r1: 3.85 ± 0.03 mM⁻¹ s⁻¹

## O=C([O-])CN(CC(=O)[O-])CC1(CN(CCN(CC(=O)O)CC(=O)O)CC(=O)O)CCC1.[Zn+2] [[Zn(CB-TTDA)]^3−]
[3]; [18]
  log KML [ZnL]/[Zn][L]: 16.06
